In publication PMC9234961 (Journal of Medicinal Chemistry, 2022):
Where two headings read alike, the source gives them in different places.

Experiments:
kinases (468) [1] = biological target: kinases (468) (Homo sapiens, UniProt P35590); details: kinase TIE1 (Entrez TIE1); compound concentration 1000 nM
kinases (468) [2] = biological target: kinases (468) (Homo sapiens, UniProt O94804); details: LOK (STK10); 1000 nM
kinases (468) [3] = biological target: kinases (468) (Homo sapiens, UniProt Q96BR1); details: kinase SGK3 (Entrez SGK3); compound concentration 1000 nM
kinases (468) [4] = biological target: kinases (468) (Homo sapiens, UniProt Q86UX6); details: kinase YANK3 (Entrez STK32C); compound concentration 1000 nM
kinases (468) [5] = biological target: kinases (468) (Homo sapiens, UniProt P15735); details: PHKG2; 1000 nM
kinases (468) [6] = biological target: kinases (468) (Homo sapiens, UniProt Q6P2M8); details: CAMK1B (PNCK); 1000 nM
kinases (468) [7] = biological target: kinases (468) (Homo sapiens, UniProt Q92630); details: DYRK2; 1000 nM
kinases (468) [8] = biological target: kinases (468) (Homo sapiens, UniProt Q59H18); details: kinase TNNI3K (Entrez TNNI3K); compound concentration 1000 nM
kinases (468) [9] = biological target: kinases (468) (Plasmodium falciparum, UniProt P62344); details: PFCDPK1(P.falciparum) (CDPK1); 1000 nM
kinases (468) [10] = biological target: kinases (468) (Homo sapiens, UniProt Q02750); details: MEK1 (MAP2K1); 1000 nM
kinases (468) [11] = biological target: kinases (468) (Homo sapiens, UniProt Q6ZWH5); details: NEK10; 1000 nM
kinases (468) [12] = biological target: kinases (468) (Homo sapiens, UniProt Q15746); details: MYLK; 1000 nM
kinases (468) [13] = biological target: kinases (468) (Homo sapiens, UniProt P0C1S8); details: kinase WEE2 (Entrez WEE2); compound concentration 1000 nM
kinases (468) [14] = biological target: kinases (468) (Homo sapiens, UniProt Q6PHR2); details: kinase ULK3 (Entrez ULK3); compound concentration 1000 nM
kinases (468) [15] = biological target: kinases (468) (Homo sapiens, UniProt Q9Y6M4); details: CSNK1G3; 1000 nM
kinases (468) [16] = biological target: kinases (468) (Homo sapiens, UniProt Q9Y2I7); details: PIKFYVE; 1000 nM
kinases (468) [17] = biological target: kinases (468) (Homo sapiens, UniProt Q8IWQ3); details: BRSK2; 1000 nM
kinases (468) [18] = biological target: kinases (468) (Homo sapiens, UniProt Q8NE63); details: HIPK4; 1000 nM
kinases (468) [19] = biological target: kinases (468) (Homo sapiens, UniProt P00533, DEL746-750); details: EGFR(E746-A750del); 1000 nM
kinases (468) [20] = biological target: kinases (468) (Homo sapiens, UniProt Q9HC98); details: NEK6; 1000 nM
kinases (468) [21] = biological target: kinases (468) (Homo sapiens, UniProt O00506); details: kinase YSK1 (Entrez STK25); compound concentration 1000 nM
kinases (468) [22] = biological target: kinases (468) (Homo sapiens, UniProt P15056, V600E); details: BRAF(V600E); 1000 nM
kinases (468) [23] = biological target: kinases (468) (Homo sapiens, UniProt P49841); details: GSK3B; 1000 nM
kinases (468) [24] = biological target: kinases (468) (Homo sapiens, UniProt Q86V86); details: PIM3; 1000 nM
kinases (468) [25] = biological target: kinases (468) (Homo sapiens, UniProt P42680); details: kinase TEC (Entrez TEC); compound concentration 1000 nM
kinases (468) [26] = biological target: kinases (468) (Homo sapiens, UniProt O14730); details: kinase RIOK3 (Entrez RIOK3); compound concentration 1000 nM
kinases (468) [27] = biological target: kinases (468) (Homo sapiens, UniProt P00519, T315I); details: 1000 nM
kinases (468) [28] = biological target: kinases (468) (Homo sapiens, UniProt P53355); details: DAPK1; 1000 nM
kinases (468) [29] = biological target: kinases (468) (Homo sapiens, UniProt P36894); details: BMPR1A; 1000 nM
kinases (468) [30] = biological target: kinases (468) (Homo sapiens, UniProt O94921); details: PFTK1 (CDK14); 1000 nM
kinases (468) [31] = biological target: kinases (468) (Homo sapiens, UniProt P42679); details: CTK (MATK); 1000 nM
kinases (468) [32] = biological target: kinases (468) (Homo sapiens, UniProt P31751); details: AKT2; 1000 nM
kinases (468) [33] = biological target: kinases (468) (Homo sapiens, UniProt P19784); details: CSNK2A2; 1000 nM
kinases (468) [34] = biological target: kinases (468) (Homo sapiens, UniProt P27448); details: MARK3; 1000 nM

Chain of kinases (468) (Homo sapiens, UniProt O00506) (O00506 whole entry): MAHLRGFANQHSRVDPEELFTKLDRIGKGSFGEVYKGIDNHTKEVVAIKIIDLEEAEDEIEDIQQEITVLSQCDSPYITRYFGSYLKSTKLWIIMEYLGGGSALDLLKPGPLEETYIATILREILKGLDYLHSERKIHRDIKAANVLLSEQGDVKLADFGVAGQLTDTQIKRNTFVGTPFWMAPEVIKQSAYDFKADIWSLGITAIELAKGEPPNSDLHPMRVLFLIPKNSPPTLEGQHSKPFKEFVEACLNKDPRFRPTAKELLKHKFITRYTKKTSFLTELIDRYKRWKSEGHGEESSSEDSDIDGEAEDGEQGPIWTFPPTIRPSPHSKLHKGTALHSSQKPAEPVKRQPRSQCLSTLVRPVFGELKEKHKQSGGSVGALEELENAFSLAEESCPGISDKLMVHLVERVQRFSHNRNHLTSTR
Chain of kinases (468) (Homo sapiens, UniProt P49841) (P49841 whole entry): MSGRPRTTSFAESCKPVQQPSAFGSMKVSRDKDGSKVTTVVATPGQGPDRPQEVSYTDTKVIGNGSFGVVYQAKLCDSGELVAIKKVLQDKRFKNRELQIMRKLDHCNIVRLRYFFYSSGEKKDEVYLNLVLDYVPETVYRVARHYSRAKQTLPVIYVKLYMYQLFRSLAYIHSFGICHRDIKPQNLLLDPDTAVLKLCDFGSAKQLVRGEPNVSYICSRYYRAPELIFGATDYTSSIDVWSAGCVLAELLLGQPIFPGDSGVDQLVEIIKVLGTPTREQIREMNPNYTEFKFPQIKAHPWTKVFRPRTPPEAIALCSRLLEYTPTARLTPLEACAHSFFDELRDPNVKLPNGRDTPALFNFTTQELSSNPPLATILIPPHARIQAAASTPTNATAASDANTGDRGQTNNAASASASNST
Chain of kinases (468) (Homo sapiens, UniProt Q15746) (Q15746 whole entry): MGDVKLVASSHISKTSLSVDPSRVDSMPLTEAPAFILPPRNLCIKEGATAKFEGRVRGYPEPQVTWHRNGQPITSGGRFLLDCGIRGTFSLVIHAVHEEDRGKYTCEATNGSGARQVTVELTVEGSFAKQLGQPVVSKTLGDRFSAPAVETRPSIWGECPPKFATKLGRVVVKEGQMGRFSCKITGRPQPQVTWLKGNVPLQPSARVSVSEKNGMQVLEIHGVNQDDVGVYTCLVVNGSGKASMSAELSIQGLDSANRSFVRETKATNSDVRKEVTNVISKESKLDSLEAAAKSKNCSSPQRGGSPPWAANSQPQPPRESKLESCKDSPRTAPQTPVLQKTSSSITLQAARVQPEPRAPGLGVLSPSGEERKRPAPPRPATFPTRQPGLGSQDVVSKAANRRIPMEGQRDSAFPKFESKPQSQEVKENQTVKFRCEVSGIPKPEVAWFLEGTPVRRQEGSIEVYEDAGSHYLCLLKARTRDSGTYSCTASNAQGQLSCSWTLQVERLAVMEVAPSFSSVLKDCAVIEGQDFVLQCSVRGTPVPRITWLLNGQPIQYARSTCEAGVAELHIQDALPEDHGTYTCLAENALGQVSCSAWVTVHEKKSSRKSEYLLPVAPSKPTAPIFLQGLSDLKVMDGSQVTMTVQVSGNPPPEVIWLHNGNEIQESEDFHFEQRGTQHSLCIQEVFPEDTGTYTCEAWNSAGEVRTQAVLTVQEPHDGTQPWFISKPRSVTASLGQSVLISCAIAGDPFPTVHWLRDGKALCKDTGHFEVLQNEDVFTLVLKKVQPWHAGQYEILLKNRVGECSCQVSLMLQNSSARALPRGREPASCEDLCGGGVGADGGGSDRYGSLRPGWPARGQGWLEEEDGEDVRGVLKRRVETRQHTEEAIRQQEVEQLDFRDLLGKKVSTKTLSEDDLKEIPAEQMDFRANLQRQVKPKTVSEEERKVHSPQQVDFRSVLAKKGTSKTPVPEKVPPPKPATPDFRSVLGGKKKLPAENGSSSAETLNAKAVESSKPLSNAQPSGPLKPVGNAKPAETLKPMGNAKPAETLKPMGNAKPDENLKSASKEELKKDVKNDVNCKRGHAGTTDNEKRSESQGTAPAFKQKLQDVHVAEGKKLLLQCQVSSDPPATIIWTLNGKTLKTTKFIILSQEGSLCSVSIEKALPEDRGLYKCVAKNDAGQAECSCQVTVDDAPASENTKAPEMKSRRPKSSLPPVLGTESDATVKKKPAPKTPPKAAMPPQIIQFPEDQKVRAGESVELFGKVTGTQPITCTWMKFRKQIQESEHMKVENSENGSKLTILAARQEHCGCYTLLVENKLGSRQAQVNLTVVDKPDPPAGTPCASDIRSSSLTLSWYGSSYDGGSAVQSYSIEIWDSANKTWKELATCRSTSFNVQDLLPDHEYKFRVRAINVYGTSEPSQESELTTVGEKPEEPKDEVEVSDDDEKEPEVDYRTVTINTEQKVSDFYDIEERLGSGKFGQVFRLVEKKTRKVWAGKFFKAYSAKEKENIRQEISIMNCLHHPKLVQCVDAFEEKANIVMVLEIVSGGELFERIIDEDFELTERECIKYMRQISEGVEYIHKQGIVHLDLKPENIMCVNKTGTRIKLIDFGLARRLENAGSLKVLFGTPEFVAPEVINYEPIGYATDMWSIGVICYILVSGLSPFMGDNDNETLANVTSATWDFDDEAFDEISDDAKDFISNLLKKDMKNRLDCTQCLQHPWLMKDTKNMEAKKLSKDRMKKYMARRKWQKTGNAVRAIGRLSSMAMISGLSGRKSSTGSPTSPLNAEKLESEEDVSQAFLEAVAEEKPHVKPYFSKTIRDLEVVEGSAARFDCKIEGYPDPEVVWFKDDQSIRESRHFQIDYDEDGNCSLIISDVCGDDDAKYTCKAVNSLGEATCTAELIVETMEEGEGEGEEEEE
Chain of kinases (468) (Homo sapiens, UniProt Q6P2M8) (Q6P2M8 whole entry): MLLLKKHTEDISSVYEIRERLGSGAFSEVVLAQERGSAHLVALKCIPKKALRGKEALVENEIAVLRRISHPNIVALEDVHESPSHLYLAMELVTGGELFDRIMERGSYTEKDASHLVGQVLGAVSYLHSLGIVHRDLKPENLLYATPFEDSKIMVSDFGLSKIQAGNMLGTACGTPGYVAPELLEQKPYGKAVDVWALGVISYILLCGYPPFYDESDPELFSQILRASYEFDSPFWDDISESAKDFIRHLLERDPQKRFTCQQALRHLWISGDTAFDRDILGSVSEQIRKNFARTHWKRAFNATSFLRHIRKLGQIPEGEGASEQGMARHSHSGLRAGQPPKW
Chain of kinases (468) (Homo sapiens, UniProt P42680) (P42680 whole entry): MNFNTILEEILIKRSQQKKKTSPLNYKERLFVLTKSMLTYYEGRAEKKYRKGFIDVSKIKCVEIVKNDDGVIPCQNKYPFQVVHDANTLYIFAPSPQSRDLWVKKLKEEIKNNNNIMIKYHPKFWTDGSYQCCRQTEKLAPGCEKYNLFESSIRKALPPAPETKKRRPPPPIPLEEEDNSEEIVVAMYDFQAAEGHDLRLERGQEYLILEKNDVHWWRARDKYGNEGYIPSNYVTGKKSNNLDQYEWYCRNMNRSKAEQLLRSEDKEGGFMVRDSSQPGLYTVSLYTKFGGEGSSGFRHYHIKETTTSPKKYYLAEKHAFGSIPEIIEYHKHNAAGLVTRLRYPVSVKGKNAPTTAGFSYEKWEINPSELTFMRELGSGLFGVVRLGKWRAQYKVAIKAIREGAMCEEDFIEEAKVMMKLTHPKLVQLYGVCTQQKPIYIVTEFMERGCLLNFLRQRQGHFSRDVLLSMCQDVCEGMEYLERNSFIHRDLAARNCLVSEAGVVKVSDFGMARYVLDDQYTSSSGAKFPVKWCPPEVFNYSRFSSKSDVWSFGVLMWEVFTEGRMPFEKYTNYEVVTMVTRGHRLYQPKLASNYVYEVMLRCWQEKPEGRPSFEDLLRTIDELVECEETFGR
Chain of kinases (468) (Homo sapiens, UniProt P15056, V600E) (P15056 whole entry V600E): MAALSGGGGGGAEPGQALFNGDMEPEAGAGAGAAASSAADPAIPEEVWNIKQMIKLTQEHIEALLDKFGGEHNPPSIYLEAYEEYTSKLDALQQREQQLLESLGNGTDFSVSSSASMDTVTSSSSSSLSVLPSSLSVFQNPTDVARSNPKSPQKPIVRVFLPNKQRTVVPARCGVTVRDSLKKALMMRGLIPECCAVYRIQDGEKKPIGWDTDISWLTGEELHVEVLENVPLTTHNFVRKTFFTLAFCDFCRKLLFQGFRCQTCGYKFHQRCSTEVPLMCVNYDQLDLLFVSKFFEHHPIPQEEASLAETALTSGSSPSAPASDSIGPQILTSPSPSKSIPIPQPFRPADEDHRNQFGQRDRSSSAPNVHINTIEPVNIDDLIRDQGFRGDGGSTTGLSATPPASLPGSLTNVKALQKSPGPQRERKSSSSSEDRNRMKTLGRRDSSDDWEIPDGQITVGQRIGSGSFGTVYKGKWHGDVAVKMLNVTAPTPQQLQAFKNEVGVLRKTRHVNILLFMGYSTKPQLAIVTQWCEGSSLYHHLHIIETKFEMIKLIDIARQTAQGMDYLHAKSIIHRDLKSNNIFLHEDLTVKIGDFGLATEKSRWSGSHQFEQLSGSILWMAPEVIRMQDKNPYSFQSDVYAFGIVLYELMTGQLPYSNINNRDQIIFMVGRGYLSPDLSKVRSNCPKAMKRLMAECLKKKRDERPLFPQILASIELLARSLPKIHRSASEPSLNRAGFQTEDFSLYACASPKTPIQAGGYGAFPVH
Chain of kinases (468) (Homo sapiens, UniProt P31751) (P31751 whole entry): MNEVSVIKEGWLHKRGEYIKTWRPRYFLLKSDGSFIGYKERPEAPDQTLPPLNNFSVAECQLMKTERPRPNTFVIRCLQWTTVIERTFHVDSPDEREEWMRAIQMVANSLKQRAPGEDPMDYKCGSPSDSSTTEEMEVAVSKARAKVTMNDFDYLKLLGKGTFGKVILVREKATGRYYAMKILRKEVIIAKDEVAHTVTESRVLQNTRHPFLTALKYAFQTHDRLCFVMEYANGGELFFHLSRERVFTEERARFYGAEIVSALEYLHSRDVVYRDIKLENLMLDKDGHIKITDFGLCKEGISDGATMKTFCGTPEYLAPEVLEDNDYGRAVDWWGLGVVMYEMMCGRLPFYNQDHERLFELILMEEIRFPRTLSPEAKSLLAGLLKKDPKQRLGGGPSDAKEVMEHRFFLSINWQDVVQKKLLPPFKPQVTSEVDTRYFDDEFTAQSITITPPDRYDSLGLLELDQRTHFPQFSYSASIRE

C[C@H]1C[C@@H](O)CN(c2ncc(Cl)c(Nc3ccc4c(c3)c3c(c(=O)n4C)OCC(F)(F)[C@H](C4CC4)N3)n2)C1 [CCT373566_9A]
Percent Control (kinases (468) [1]): 100%
Percent Control (kinases (468) [2]): 100%
Percent Control (kinases (468) [3]): 99%
Percent Control (kinases (468) [4]): 100%
Percent Control (kinases (468) [5]): 100%
Percent Control (kinases (468) [6]): 69%
Percent Control (kinases (468) [7]): 91%
Percent Control (kinases (468) [8]): 100%
Percent Control (kinases (468) [9]): 69%
Percent Control (kinases (468) [10]): 90%
Percent Control (kinases (468) [11]): 99%
Percent Control (kinases (468) [12]): 91%
Percent Control (kinases (468) [13]): 93%
Percent Control (kinases (468) [14]): 93%
Percent Control (kinases (468) [15]): 100%
Percent Control (kinases (468) [16]): 83%
Percent Control (kinases (468) [17]): 100%
Percent Control (kinases (468) [18]): 96%
Percent Control (kinases (468) [19]): 100%
Percent Control (kinases (468) [20]): 100%
Percent Control (kinases (468) [21]): 91%
Percent Control (kinases (468) [22]): 100%
Percent Control (kinases (468) [23]): 94%
Percent Control (kinases (468) [24]): 100%
Percent Control (kinases (468) [25]): 94%
Percent Control (kinases (468) [26]): 85%
Percent Control (kinases (468) [27]; ABL1(T315I)-nonphosphorylated): 89%
Percent Control (kinases (468) [27]; ABL1(T315I)-phosphorylated): 88%
Percent Control (kinases (468) [28]): 83%
Percent Control (kinases (468) [29]): 100%
Percent Control (kinases (468) [30]): 95%
Percent Control (kinases (468) [31]): 100%
Percent Control (kinases (468) [32]): 100%
Percent Control (kinases (468) [33]): 100%
Percent Control (kinases (468) [34]): 89%
